Experimental data from patent publication US20090221624A1, “4-AMINOQUINOLINE COMPOUNDS FOR TREATING VIRUS-RELATED CONDITIONS” (priority 2005, published 2009).

Key:
[1] = tested on: DNG (D2-hRuPac cells); assay: DNG antiviral activity, D2-hRuPac cells, Renilla luciferase; assay type: cell-based, Dengue fever virus; conditions: Dengue virus, secondary screening
[2] = tested on: WNV (WN-hRuPac cells); assay: WNV antiviral activity, WN-hRuPac cells, Renilla luciferase; assay type: cell-based, West Nile virus; conditions: for EC50 / inhibition at 25 µM: West Nile virus; for EC50: Secondary Data, WNV, read-out: WNV EC50; for inhibition at 25 µM: primary screening, 25 μM final concentration, 24 hours, percent inhibition of viral replication, read-out: WNV Inh; for WNV TI: therapeutic index CC50/EC50, WNV
[3] = in vitro
[4] = tested on: RSV minigenome; assay: RSV minigenome-dependent β-galactosidase expression assay (RSV β-Gal); assay type: cell-based, respiratory syncytial virus; conditions: for EC50 / inhibition at 25 µM: human respiratory syncytial virus; for EC50: Secondary Data, RSV, read-out: RSV EC50; for inhibition at 25 µM: primary screening, 25 μM final concentration, 24 hours, percent inhibition of viral replication, read-out: RSV Inh; for RSV TI: therapeutic index CC50/EC50, RSV
[5] = tested on: SINV (SR19-F-luc cells); assay: SINV antiviral activity, SR19-F-luc cells, Firefly luciferase; assay type: cell-based; conditions: Sindbis virus; for inhibition at 25 µM: primary screening, 25 μM final concentration, 24 hours, percent inhibition of viral replication, read-out: SINV Inh; for EC50: secondary screening, SR19-F-luc cells
[6] = tested on: HCV replicon (Clone A cells, Huh7, subgenomic hepatits C virus RNA); assay: HCV Neo screening assay (HCV replicon, NPTII ELISA); assay type: cell-based, hepatitis C virus; conditions: for inhibition at 25 µM / EC50: Hepatitis C virus, Huh-7; for inhibition at 25 µM: primary screening, 25 μM final concentration, 24 hours, percent inhibition of viral replication, read-out: HCV Inh; for EC50: Secondary Data, HCV; for HCV TI: therapeutic index CC50/EC50, HCV
[7] = tested on: YFV (YF-hRuPac cells); assay: microbe, parasite or virus in culture; assay type: cell-based, yellow fever virus; conditions: for inhibition at 25 µM / EC50: Yellow fever virus; for inhibition at 25 µM: 24 h, read-out: YFV Inh; for EC50: read-out: YFV EC50
[8] = tested on: EBOV minigenome; assay: microbe, parasite or virus in culture; assay type: cell-based, Ebola virus; conditions: Zaire ebolavirus; for inhibition at 25 µM: 24 h, read-out: EBOV Inh; for EC50: read-out: EBOV EC50

| SMILES | EC50 [1] [µM] | EC50 [2] [µM] | inhibition at 25 µM [2] [%] | CC50 ([3]; DNG CC50) [µM] | CC50 ([3]; EBOV CC50) [µM] | CC50 ([3]; RSV CC50) [µM] | CC50 ([3]; SINV CC50) [µM] | CC50 ([3]; WNV CC50) [µM] | CC50 ([3]; YFV CC50) [µM] | EC50 [4] [µM] | inhibition at 25 µM [4] [%] | RSV TI [4] | inhibition at 25 µM [5] [%] | EC50 [5] [µM] | inhibition at 25 µM [6] [%] | YFV TI [7] | inhibition at 25 µM [7] [%] | EC50 [7] [µM] | inhibition at 25 µM [8] [%] | WNV TI [2] | other results |
| --- | --- | --- | --- | --- | --- | --- | --- | --- | --- | --- | --- | --- | --- | --- | --- | --- | --- | --- | --- | --- | --- |
| CC(=O)c1cccc(Nc2cc(C)nc3ccccc23)c1 [Compound 17] | ≥ 75 | ≥ 75 | 40.3 | ≥ 75 | ≥ 75 | ≥ 75 | ≥ 75 | ≥ 75 | ≥ 75 | 37.3 | 50.7 | 2.01 | 72.1 | 3.83 | 12.3 | 1.18 | 54 | 63.6 | -42 | – | CC50 ([3]; HCV CC50): 30.4 µM; EC50 [8]: 75 µM |
| Cc1ccc2nc(C)cc(NCc3ccccc3)c2c1 [Compound 18] | 31.5 | 21.3 | 63.9 | 56.4 | 56.4 | 56.4 | 56.4 | 56.4 | 56.4 | 5.57 | 88.6 | 10.12 | 54.4 | 15.3 | 36.9 | 6.21 | 61.5 | 9.07 | -29.5 | 2.65 | – |
| Cc1ccc2nc3c(c(Nc4ccc(N5CCOCC5)cc4)c2c1)CCC3 [Compound 21] | 20.2 | 9.62 | 62.7 | 44.8 | 44.8 | 44.8 | 44.8 | 44.8 | 44.8 | 4.16 | 99.4 | 10.77 | 69.7 | 12.1 | 159 | 7.16 | 63.1 | 6.26 | 46.5 | 4.66 | CC50 ([3]; HCV CC50): 8.02 µM; EC50 [6]: 8.09 µM; HCV TI [6]: 0.99; EC50 [8]: 47.9 µM |
| CCOC(=O)c1ccc2ncc(C(=O)OCC)c(NCCCOC(=O)C(Cl)(Cl)Cl)c2c1 [Compound 64] | 4.19 | 8.9 | 37.2 | 60.5 | 60.5 | 60.5 | 60.5 | 60.5 | 60.5 | 22 | 84.9 | 2.75 | 26.1 | 34.1 | 43.4 | 1.32 | 25.8 | 45.9 | 90.1 | 6.8 | EC50 [8]: 15.5 µM |
| CCOC(=O)c1cnc2c(OC)cccc2c1NC(C)c1ccccc1 (stereo not drawn) [Compound 71] | 37.2 | 13.9 | 24.7 | 49.3 | 49.3 | 49.3 | 49.3 | 49.3 | 49.3 | 4.47 | 93.3 | 11.03 | 49.1 | 5.52 | 80.1 | 0.84 | 71.2 | 58.5 | 90.1 | 3.55 | CC50 ([3]; HCV CC50): 39.6 µM; EC50 [6]: 8.95 µM; HCV TI [6]: 4.42; EC50 [8]: 29.5 µM |
| Cc1cc(C)c2nc(C)cc(Nc3ccc(OCc4ccccc4)cc3)c2c1 [Compound 44] | 3.39 | 4.29 | 99.9 | 27.4 | 27.4 | 27.4 | 27.4 | 27.4 | 27.4 | 3.88 | 98.9 | 7.06 | 95.8 | 3.57 | 94.7 | 12.12 | 100 | 2.26 | 99.6 | 6.39 | CC50 ([3]; HCV CC50): 5.05 µM; EC50 [6]: 2.93 µM; HCV TI [6]: 1.72; EC50 [8]: 75 µM |
| CCOC(=O)c1cnc2c(C)cc(C)cc2c1NCc1ccco1 [Compound 35] | 11.1 | 2.52 | 104 | 37.2 | 37.2 | 37.2 | 37.2 | 37.2 | 37.2 | 1.04 | 89.9 | 35.77 | 44.9 | ≥ 75 | 67.5 | 12.28 | 98.7 | 3.03 | 75.2 | 14.76 | CC50 ([3]; HCV CC50): 53 µM; EC50 [6]: 8.35 µM; HCV TI [6]: 6.34; EC50 [8]: 6.64 µM |
| CCOC(=O)c1cnc2c(Cl)cc(Cl)cc2c1NCc1ccco1 [Compound 52] | 15.8 | 10.8 | 88.9 | 44.1 | 44.1 | 44.1 | 44.1 | 44.1 | 44.1 | 2.51 | 99.1 | 17.57 | 10.2 | 24.8 | 76.5 | 8.84 | 90 | 4.99 | 76.9 | 4.08 | CC50 ([3]; HCV CC50): 70.2 µM; EC50 [6]: 12.5 µM; HCV TI [6]: 5.62; EC50 [8]: 13.2 µM |
| Cc1ccc2nc3c(c(Nc4ccc(O)cc4)c2c1)CCC3 [Compound 16] | 9.44 | 13.1 | 66.8 | 34.1 | 34.1 | 34.1 | 34.1 | 34.1 | 34.1 | 7.1 | 88.5 | 4.81 | 79.5 | 1.52 | 119 | 1.63 | 75.9 | 21 | 7.83 | 2.61 | CC50 ([3]; HCV CC50): 33.5 µM; EC50 [6]: 9 µM; HCV TI [6]: 3.72; EC50 [8]: 29.9 µM |
| COc1ccc2nc(C)cc(Nc3ccc(I)cc3)c2c1 [Compound 76] | 13.5 | 50.4 | 85.9 | 35.5 | 35.5 | 35.5 | 35.5 | 35.5 | 35.5 | 18.2 | 75.9 | 1.95 | 93.5 | 2.55 | 152 | 3.98 | 93.1 | 8.92 | 93.9 | 0.7 | CC50 ([3]; HCV CC50): 21.5 µM; EC50 [6]: 11.3 µM; HCV TI [6]: 1.9; EC50 [8]: 19.8 µM |
| CCOC(=O)c1cnc2c(ccc3ccccc32)c1NCc1ccco1 [Compound 37] | 25.5 | 4.08 | 87.8 | 41.6 | 41.6 | 41.6 | 41.6 | 41.6 | 41.6 | 1.38 | 58 | 30.12 | 10.3 | ≥ 75 | 72.9 | 15.12 | 94.4 | 2.75 | 15.7 | 10.19 | CC50 ([3]; HCV CC50): 56 µM; EC50 [6]: 13 µM; HCV TI [6]: 4.31; EC50 [8]: 75 µM |
| CCOC(=O)c1cnc2ccc(F)cc2c1Nc1ccc(S(=O)(=O)Nc2nc(C)cc(C)n2)cc1 [Compound 74] | 4.08 | 9.72 | 90.5 | ≥ 75 | ≥ 75 | ≥ 75 | ≥ 75 | ≥ 75 | ≥ 75 | ≥ 75 | 26.6 | – | 19.4 | ≥ 75 | 39.4 | 7.75 | 93.5 | 9.68 | 76.1 | 7.72 | – |
